Reference: patent publication US4665086A, “Method for minimizing disturbances in circadian rhythms of bodily performance and function” (priority 1983, dated 1987)
Where “and” joins values, the source holds several entries; their conditions need not be identical. Identical values can stand only once. Entries after “also recorded” stand apart in the source; their conditions may differ.

What was measured:
[1] = system: circadian rhythms in humans (jet lag); type: in vivo, human
Description: Subject D Flight from Melbourne→London→Edinburgh→London→Melbourne 23.3.84-2.4.84 The subject, a Clinical Professor who had never taken Melatonin before, was given gelatin capsules containing 5 mg Melatonin and instructed to take one capsule on going to bed in the evening (local time) after arrival at their destination, and to take a further capsule if they awoke in the night.

[2] = system: depressed patients; conditions: cited from earlier work
[3] = system: body temperature rhythm in humans (shift work); assay: Example 10: Subject F, simulated rapid rotating shift work roster, double blind melatonin vs placebo, rectal temperature; type: in vivo, human; conditions: for sleep induction: from diary descriptions
Description: The subject was a […] psychology lecturer who had never taken Melatonin before. In order to evaluate the effects of Melatonin on adaptation to rotating shift work conditions the subject undertook three, eight hour phase advances in their sleep-wake/work-rest schedule at six day intervals. Melatonin was administered under double blind conditions on the first phase advance and placebo taken on the second. […] This entrainment was not a secondary consequence of sleep induction. The data can be taken as evidence for Melatonin as an effective chronobiotic for adaptation to shiftwork.
The experiment was designed to incorporate the salient features of a rapidly rotating shift-work schedule combined with aspects of lighting changes encountered on destination arrival after intercontinental jet flight. […] The experimental protocol differed from that normally found in shift work in that the subject had to spend the dark period in bed in an isolation unit irrespective of whether sleepiness was felt or not; whereas, no sleep was allowed during the light period no matter how tired the subject felt. During the light period the subject was free to leave the isolation unit to engage in work or leisure related activities.
The experiment was carried out over the long vacation, the isolated unit being situated half below ground under one of the residential colleges on La Trobe University Campus. The area was, therefore, fairly well buffered against external noise and a ventilation exhaust fan was continuously running, which aided extraneous noise reduction. Windows located high up on the walls of the kitchen alcove and shower/toilet rooms were blacked out. The main sleeping-living room was illuminated by two fluorescent tubes (40 watt) while the alcove and bathroom areas had one, 40 watt, fluorescent light in each. All lights were controlled by a single time clock set to give an LD 16:8 cycle, lights on at 0730 hours during baseline. A bedside lamp was used for reading during the light period. No lighting was allowed during the dark period for any reason. Therefore, events such as quenching of thirst and urination had to take place in total darkness. Temperature of the isolation area was maintained within the range 20°-22° C. throughout the experiment. During stage A and pre-baseline breakfast was ingested between 0800 and 0900, lunch between 1300 and 1400, and dinner between 1800 and 2000. During stages B and C meals and intermeal intervals were scheduled for equivalent times (relative to lights on) to those during stage A.
During stages B and C the subject was instructed to take one capsule just prior to lights off. If still awake one hour later, the subject was to take a second capsule. Similar instructions applied to the second and third hours after lights-off but no capsule was to be taken during the last four hours of darkness i.e. maximum number of capsules to be taken was four. Capsules were refrigerated and had to be taken in complete darkness once lights were off. A double blind procedure was employed with stage B being drug (Melatonin, Sigma, 5mg/capsule) and stage C being placebo (sucrose filled capsule). No capsules were taken on the final dark period at the end of each stage i.e. days 10 and 16.
Rectal temperature was sampled every 12 minutes using a Vitalog PMS 8 portable microcomputer. A diary of life events was kept. These included details of sleep, work, leisure, meals, beverages, urination and defecation. […]

[4] = Example 9: absorption and clearance of orally administered melatonin, plasma radioimmunoassay; type: in vivo, human
Text: This was two hours after a light breakfast of apple juice, cereal and tea. Blood sampling was continued until 1400 hrs. The blood was immediately centrifuged, and the plasma frozen until assayed for melatonin using a specific radioimmunoassay developed in the inventors' laboratory as a modification of the procedure originally described by D. J. Kennaway et al. (Endocrinology 110, 1766, 1982.) The results are shown in the accompanying FIG. 2.

[5] = system: circadian rhythms in humans (jet lag, body temperature rhythm); assay: Example 4: Subject A, round-the-world flight, melatonin with rectal temperature record (Vitalog PMS8); type: in vivo, human
Text: Subject A Flight from Melbourne→Geneva→London→Chapel Hill, N.C.→Melbourne 18.9.83-30.9.83. […] During this experiment use was made of a portable Vitalog PMS8 mini computer to record the temperature of Subject A. The Vitalog PMS8 recorded body temperature at ten minute intervals utilizing a rectal temperature probe. […] A discussion of the temperature record follows. During this flight Subject A wore the Vitalog PMS8 mini computer and rectal probe for the continuous recording of their deep body temperature. The equipment malfunctioned after 4 days due to premature battery failure. From 18.9.83- 23.9.83 Subject A kept a detailed daily log of quality and nature of sleep, modd, and alertness according to a technique developed by NASA. […] The dark, dotted regions represent dark periods. The time scale is for Melbourne time no matter where Subject A is identified by one of the letters A, B, C, D or E. Recordings of dark periods B, C and D have been repeated to give continuity to the record. The black arrows identify the times of administration of melatonin.

[6] = system: circadian rhythms in humans (jet lag); assay: Example 3: Subject A, flight Melbourne-Stockholm-London-Melbourne, melatonin at local bedtime; type: in vivo, human; conditions: 5 mg oral
Text: |Subject A Flight from Melbourne → Stockholm → London |Detail of activity schedule, sleeping times, melatonin adminsitration.

[7] = system: circadian rhythms in humans (jet lag); assay: Example 2: Subject A, flight Melbourne-Munster-Melbourne, melatonin at local bedtime; type: in vivo, human; conditions: 5 mg oral capsule
Text: |Flight from Melbourne → Munster, W. Germany → Melbourne. |Details of activity schedule, sleeping time, melatonin administration. As in Example 1, Subject A took melatonin packaged in a gelatine capsule.

SMILES: COc1ccc2[nH]cc(CCNC(C)=O)c2c1 [melatonin, 5-methoxy-N-acetyltryptamine]
- sleep after taking melatonin ([1]; Subject D, 5 mg (5+5 mg on Bombay-London leg), listed as Melatonin): did not induce sleep when taken on the outward journey
- napping during daytime meeting talks ([1]; Subject D, much less than when using Mogadon): napped minimally
- effects of discontinuing melatonin ([1]; human, in vivo): no adverse effects
- effect on symptoms of depressed patients [2]: exacerbation of symptoms including florid psychotic episodes
- time to fall asleep after lights out (diary, Table 2) ([3]; Subject F, 22.1.84, first complete day after first phase shift, capsule taken 1515): approx. 30 minutes
- time by which temperature rhythm was re-established and in phase with the new light-dark cycle ([3]; Subject F, first 8 hour advance of darkness): by the third complete day after the phase shift (day 8)
- entrainment of body (rectal) temperature rhythm ([3]; Subject F, first 8 hour phase advance, 5 mg/capsule before lights off, double blind, contrast to placebo): good and accelerated entrainment of the body temperature rhythm; also recorded: phase shifted the rectal temperature rhythm
- sleep induction ([3]; Subject F): did not have the same potent sleep induction as reported by other subjects after intercontinental flight
- sleep induction ([3]; Subject F, listed as Melatonin): aided sleep induction
- plasma melatonin concentration at which subjective feelings of drowsiness were experienced ([4]; Subject A, 5 mg oral): exceeded 2 ng/ml
- subjective effects coincident with maximal plasma levels ([4]; Subject A, 5 mg oral): yawning and sleepiness
- Tmax ([4]; human, plasma, po, 5 mg, Subject A, 5 mg oral in gelatin capsule, read-out: time after ingestion to peak plasma concentration (converted)): 1.1 h
- plasma values 260 minutes after ingestion relative to normal nocturnal values of around 100 pg/ml plasma ([4]; in vivo, po): 10 times higher
- feeling on awakening / during day after melatonin sleep (diary) ([5]; 5 mg oral, listed as Melatonin): feeling excellent; also recorded: feeling drowsy, slight headache; also recorded: feeling fine; also recorded: feeling good; also recorded: Felt fine; also recorded: tired and sleepy and cold; also recorded: Felt very sleepy, but this soon passed
- sleep after taking melatonin (diary) ([5]; 5 mg oral, listed as Melatonin): Fell asleep at once; also recorded: Did not fall asleep; also recorded: half an hour; also recorded: slept soundly
- time to fall asleep after taking melatonin (diary) ([5]; 5 mg oral, listed as Melatonin): 30 min and 25 min
- subjective symptoms of jet-lag (comment) ([5]; 5 mg oral, round-the-world flight in Westerly direction): no subjective symptoms of jet-lag
- time of maximal body temperatures ([5]; after arrival in Geneva, rectal probe): around midnight Melbourne time
- re-entrainment of body temperature rhythm ([5]; rectal temperature, after arrival in Geneva, FIG. 1): re-entrained extremely rapidly to Geneva time
- time of lowest body temperatures ([5]; third and fourth sleep periods in Geneva, rectal probe): around mid-day Melbourne time
- sleep after taking melatonin (diary, comment) [6]: sleep well at an inappropriate time of the day
- feeling jet-lagged (comment) ([6]; 8-9 hour time change): At no time during the day either in Sweden or on their return to Melbourne did they feel jet-lagged
- feeling on awakening / during day after melatonin sleep (diary) ([6]; listed as Melatonin): Feeling fine; also recorded: Felt good; also recorded: feeling good; also recorded: Felt fine
- sleep after taking melatonin (diary, comment) ([6]; listed as Melatonin): fell asleep again; also recorded: good sleep; also recorded: slept well; also recorded: sleep until 2330 hrs; also recorded: asleep 2400 hrs
- time to fall asleep after taking melatonin (diary) ([6]; return flight after Singapore): 3/4
- sleep after taking melatonin (diary, comment) [7]: sleep well following both Westerly and Easterly flights
- symptoms of jet lag (comment) ([7]; 8-hour time zone change): no symptoms of jet lag apart from tiredness on the second day after their return to Melbourne
- feeling on awakening / during day after melatonin sleep (diary) ([7]; listed as Melatonin): Felt fresh and rested, much less tired; also recorded: feeling excellent; also recorded: feeling fine; also recorded: feeling good; also recorded: felt fresh and rested; also recorded: Felt tired during the day; also recorded: hangover
- sleep after taking melatonin (diary, comment) ([7]; listed as Melatonin): fell asleep; also recorded: slept deeply; also recorded: good sleep; also recorded: slept very well; also recorded: slept well
